Measured values: patent publication US20100285140A1, “ANTIMICROBIAL AGENT FOR GRAM-POSITIVE BACTERIA” (priority 2007, published 2010)
Values after ≈ are worked out from the molar mass of the structure shown.

Key:
Experiment in all cases: broth microdilution MIC/MBC
Assay type in all cases: cell-based
MSSA JCM2874 = conditions: Staphylococcus aureus, ABPC
MSSA ATCC6538 = conditions: Staphylococcus aureus, ABPC
MRSA N315 = conditions: Staphylococcus aureus, ABPC
MRSA JCM8703 = conditions: Staphylococcus aureus, ABPC
[1] = test system: MRSA clinical isolate 1801 blaZ(−); conditions: Staphylococcus aureus, ABPC
[2] = test system: MRSA clinical isolate 2022 blaZ(−); conditions: Staphylococcus aureus, ABPC
[3] = test system: MRSA clinical isolate 2005 blaZ(+); conditions: Staphylococcus aureus, ABPC
[4] = test system: MRSA clinical isolate 2526 blaZ(+); conditions: Staphylococcus aureus, ABPC
VSE5804 = conditions: Enterococcus, ABPC
Experimental: Ampicillin (ABPC) was used as a positive control. The measurement was carried out in accordance with a broth microdilution method (NCCLS). […] These serial dilutions were placed in a 96-well plate, and a bacterial strain was added to each well at an amount of 10^5 CFU/ml, followed by incubation at 35° C. for 18 hours. In the case where turbidity was visually observed, it was judged that the bacterial strain grew. The lowest concentration at which the bacterial growth was not observed was defined as MIC. A solution was collected from the well in which bacterial growth was not observed, added to an antibiotic-free medium, and then incubated at 35° C. for 18 hours, followed by visually observing existence of turbidity. The lowest concentration at which turbidity was not observed was defined as MBC. Values in the tables are: ABPC, μg/ml; polymer particles, mg/ml. Numbers in the parentheses indicate the dilution factor.

VRE GTC02000 = conditions: Enterococcus, ABPC

Q: How did the MBC (MSSA JCM2874) turn out when `CC1(C)S[C@@H]2[C@H](NC(=O)[C@H](N)c3ccccc3)C(=O)N2[C@H]1C(=O)O` [ABPC, Ampicillin] was run?
A: 2 µg/mL (≈ 5.72 µM)

Q: What about the MIC (MSSA JCM2874) of the same compound?
A: 2 µg/mL (≈ 5.72 µM)

Q: What about the MBC (MSSA ATCC6538) of the same compound?
A: 0.063 µg/mL (≈ 0.18 µM)

Q: And the MIC (MSSA ATCC6538)?
A: 0.063 µg/mL (≈ 0.18 µM)

Q: What about the MBC (MRSA N315) of the same compound?
A: 32 µg/mL (≈ 91.6 µM)

Q: What about the MBC (MRSA JCM8703) of the same compound?
A: 64 µg/mL (≈ 183 µM)

Q: What about the MIC (MRSA JCM8703) of the same compound?
A: 64 µg/mL (≈ 183 µM)

Q: And the MBC [1]?
A: 16 µg/mL (≈ 45.8 µM)

Q: And the MIC [1]?
A: 16 µg/mL (≈ 45.8 µM)

Q: What about the MBC [2] of the same compound?
A: 16 µg/mL (≈ 45.8 µM)

Q: And the MIC [2]?
A: 16 µg/mL (≈ 45.8 µM)

Q: What about the MBC [3] of the same compound?
A: 64 µg/mL (≈ 183 µM)

Q: What about the MIC [3] of the same compound?
A: 64 µg/mL (≈ 183 µM)

Q: What about the MBC [4] of the same compound?
A: 64 µg/mL (≈ 183 µM)

Q: What about the MIC [4] of the same compound?
A: 64 µg/mL (≈ 183 µM)

Q: And the MBC (VSE5804)?
A: 0.5 µg/mL (≈ 1.43 µM)

Q: And the MIC (VSE5804)?
A: 0.5 µg/mL (≈ 1.43 µM)

Q: And the MBC (VRE GTC02000)?
A: 1 µg/mL (≈ 2.86 µM)

Q: What about the MIC (VRE GTC02000) of the same compound?
A: 1 µg/mL (≈ 2.86 µM)
